Two substances from PMC10065799, “High-throughput profiling of sequence recognition by tyrosine kinases and SH2 domains using bacterial peptide display” (eLife, 2023) can be followed below.

In one experiment the test system is EPHB2 kinase domain. The experiment is described as follows: ADP-Quest continuous fluorimetric kinase assay (initial rates of consensus peptides). Type of experiment: biochemical, human. Particulars: peptide 100 μM, kinase 10–50 nM; Figure 2C. An excerpt: A fluorescence-based assay from Eurofins (ADP Quest) was used to measure the Michaelis-Menten kinetic parameters for phosphorylation of the consensus peptides by purified tyrosine kinase domains. In this assay, ADP production as a result of kinase activity is coupled to the production of resorufin, a fluorophore that emits signal at 590 nm. For all experiments, the assay reactions were set up as described in the provided assay kit protocol, in a 384 well plate format. The peptide solutions were serially diluted in 100 mM Tris, pH 8.0, and the kinases were diluted to 50 nM in buffer (10 mM HEPES, 100 mM NaCl, 1 mM TCEP, 5 mM MgCl2, 10% (v/v) glycerol). The final reaction mixtures contained 10 nM of kinase with 100 μM of ATP. […] Phosphorylation reaction progress was monitored by measuring fluorescence at excitation 530 nm and emission 590 nm every 2 min at 37 °C on a plate reader (BioTek Synergy Neo 2). The fluorescence units (RFU) were converted to μM ADP by comparison to a standard curve, and the initial rates were extracted from the linear regime of the reaction progress curves. Initial rates were also measured for samples containing each kinase but lacking a peptide substrate, to account for background ATP hydrolysis. This background rate was subtracted from the rates measured in the presence of peptide. […]

A further experiment concerns the target T1, c-Abl kinase domain (Mus musculus, UniProt P00520).
T1 sequence (P00520 242-493 limits assumed): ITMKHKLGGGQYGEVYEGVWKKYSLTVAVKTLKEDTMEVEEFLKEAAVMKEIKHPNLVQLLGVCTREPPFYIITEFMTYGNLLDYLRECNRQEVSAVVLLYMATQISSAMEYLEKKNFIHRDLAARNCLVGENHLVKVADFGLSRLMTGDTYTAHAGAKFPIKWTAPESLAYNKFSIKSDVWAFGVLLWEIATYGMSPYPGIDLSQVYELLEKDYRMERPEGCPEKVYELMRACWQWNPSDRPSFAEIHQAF
The experiment is described as follows: ADP-Quest continuous fluorimetric kinase assay (Michaelis-Menten parameters and initial rates). It counts as biochemical. The following applies: c-Abl kinase domain 10 nM, 100 μM ATP, 37 °C, three to five replicates, error = standard error of global Michaelis-Menten fit. The source says: (§1) A fluorescence-based assay from Eurofins (ADP Quest) was used to measure the Michaelis-Menten kinetic parameters for phosphorylation of the consensus peptides by purified tyrosine kinase domains. In this assay, ADP production as a result of kinase activity is coupled to the production of resorufin, a fluorophore that emits signal at 590 nm. For all experiments, the assay reactions were set up as described in the provided assay kit protocol, in a 384 well plate format. The peptide solutions were serially diluted in 100 mM Tris, pH 8.0, and the kinases were diluted to 50 nM in buffer (10 mM HEPES, 100 mM NaCl, 1 mM TCEP, 5 mM MgCl2, 10% (v/v) glycerol). The final reaction mixtures contained 10 nM of kinase with 100 μM of ATP. Reactions were initiated with the addition of 1 mM ATP into a 50 μL reaction mixture for a final concentration of 100 μM ATP. Phosphorylation reaction progress was monitored by measuring fluorescence at excitation 530 nm and emission 590 nm every 2 min at 37 °C on a plate reader (BioTek Synergy Neo 2). The fluorescence units (RFU) were converted to μM ADP by comparison to a standard curve, and the initial rates were extracted from the linear regime of the reaction progress curves. Initial rates were also measured for samples containing each kinase but lacking a peptide substrate, to account for background ATP hydrolysis. This background rate was subtracted from the rates measured in the presence of peptide. The subtracted rates were plotted as a function of substrate concentration and fit to the Michaelis-Menten equation to extract kcat and KM values.

Experiment [1] addresses T2, c-Src kinase domain (Homo sapiens, UniProt P12931). The experiment is described as above. Type of experiment: biochemical. The following applies: c-Src kinase domain 10 nM, 100 μM ATP, 37 °C, three to five replicates, error = standard error of global Michaelis-Menten fit.
From the text: as §1

Experiment [2] deals with T2, c-Src kinase domain. Put plainly: RP-HPLC assay to measure peptide phosphorylation kinetics. Type of experiment: biochemical. The following applies: purified peptide substrate.

Take “Ac-GPDEPIYAVPPIKKKG-NH2 [Abl Consensus, c-Abl consensus substrate peptide from X5-Y-X5 screen]”: in the experiment on EPHB2 kinase domain, the “phosphorylation of consensus peptide by EPHB2 (initial rate relative to cognate consensus)” value is on record as “efficiently phosphorylated”. The Michaelis-Menten constant (Km) at c-Abl kinase domain amounted to 6 ± 2 µM; on c-Src kinase domain [1], 159 ± 31 µM. Further, the kcat amounted to 3.0±0.2 s^–1 at c-Abl kinase domain and 2.0±0.2 s^–1 at c-Src kinase domain [1].

For Ac-VASSLYDILAR-NH2 [GLB1_Y294], on c-Src kinase domain [2], the “Phosphorylation Rate” value is 0.892 s⁻¹.
